Reference: PubChem BioAssay AID2202554 (NIEHS Division of Translational Toxicology (DTT))
Inconclusive results are not listed. The source made the active and inactive calls. How the calls were made is not given here.

Test system: S. typhimurium/E. coli reverse mutation, colony counts
Test: Bacterial reverse mutation test (aka Ames test) summary data
Method in brief: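 Revertant colony counts on plates, compared with untreated controls, after about two days of growth. Exposure with or without liver S9 (rat/hamster/mouse), dose range per strain, 20-min 37° C preincubation or direct plate incorporation. Strains: his⁻ Salmonella, trp⁻ E. coli WP2 uvrA pKM101.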

Structure (SMILES)	outcome
C=C(Cl)CSC(=S)N(CC)CC	active; positive
c1ccc2n[nH]nc2c1	active; weakly positive
COc1ccc(Cc2nccc3cc(OC)c(OC)cc23)cc1OC	inactive; negative
CN=C=O	inactive; negative
C[N+](=O)[O-]	inactive; negative
Clc1ccc(C(c2ccc(Cl)cc2)C(Cl)(Cl)Cl)cc1	inactive; negative
CCOCCOCCO	inactive; negative
COc1ccc(C(c2ccc(OC)cc2)C(Cl)(Cl)Cl)cc1	inactive; negative
CCN(Cc1ccccc1)c1ccccc1	inactive; negative
Cc1cscn1	inactive; negative
Cc1ccc([N+](=O)[O-])c(N)c1	inactive; negative
Clc1cc(Cl)c(Cl)cc1Cl	inactive; negative
S=c1[nH][nH]c(=S)s1	inactive; negative
CCCCOC(=O)c1ccccc1C(=O)OC1CCCCC1	inactive; negative
Cc1ccc(O)c(C)c1	active; weakly positive
CN(C)C=O	inactive; negative
S=C=Nc1cccc2ccccc12	active; positive
O=S(=O)(O)c1cc(N=Nc2c(O)ccc3ccccc23)ccc1-c1ccc(N=Nc2c(O)ccc3ccccc23)cc1S(=O)(=O)O	inactive; negative
CC(CCN(C)C)N(C)C (configuration not stated)	inactive; negative
C=CCOCC1CO1 (configuration not stated)	active; positive
Clc1ccc(C(c2ccccc2Cl)C(Cl)Cl)cc1 (configuration not stated)	inactive; negative
O=S(=O)(c1ccc(Cl)cc1)c1ccc(Cl)cc1	inactive; negative
CC(C)CCON=O	active; positive
O=C(O)c1cc(Cl)cc(Cl)c1	inactive; negative
O=C(Nc1ccccc1)c1cc2ccccc2c(N=Nc2cc(Cl)ccc2Cl)c1O	active; weakly positive
C[C@](N)(Cc1ccc(O)c(O)c1)C(=O)O	inactive; negative

Structure (SMILES)	outcome
CC1CCC(C(C)CS)CC1S (configuration not stated)	inactive; negative
O=C1c2ccccc2C(=O)c2ccccc21	active; positive
Cc1cccc(C)c1N	active; weakly positive
C1CCCCC1	inactive; negative
CC(C)C#N	inactive; negative
CN(C)CCN(Cc1ccsc1)c1ccccn1	inactive; negative
Cc1ccccc1N	active; positive
C1CNCCN1	inactive; negative
c1ccc(O[Si](Oc2ccccc2)(Oc2ccccc2)Oc2ccccc2)cc1	inactive; negative
ClC/C=C/CCl	active; positive
COP(=O)(O)O	inactive; negative
Cc1ccc(N)c(N)c1	active; positive
c1ccc2occc2c1	inactive; negative
ClCC(Cl)CCl	active; positive
CCN(CC)CC	inactive; negative
F	inactive; negative
S=C(NC1CCCCC1)NC1CCCCC1	inactive; negative
CN(CCO)CCO	inactive; negative
Cc1c[nH]c(=S)[nH]c1=O	inactive; negative
Cc1cc(-c2cc(C)c(N)c(C)c2)cc(C)c1N	inactive; negative
NC1NC=CS1 (configuration not stated)	active; positive
O=C1NC2NC(=O)NC2N1 (configuration not stated)	inactive; negative
NCCC(=O)O	inactive; negative
CCC1NC(=O)c2cc(S(N)(=O)=O)c(Cl)cc2N1 (configuration not stated)	inactive; negative
O=C/C=C/O	inactive; negative
CCCCOB(OCCCC)OCCCC	inactive; negative

Structure (SMILES)	outcome
CCCCCCCC/C=C\CCCCCCCC(=O)O	inactive; negative
Cc1ccc2c(C)cccc2c1	inactive; negative
C/C=C/C=C/C(=O)O	inactive; negative
CC=CC=CC=O	active; positive
CC1=CC[C@H]2C(C)=CC[C@@H](C(C)C)[C@@H]2C1	inactive; negative
CC(CO)[N+](=O)[O-] (configuration not stated)	inactive; negative
Cc1cccc(C#N)c1	inactive; negative
COc1ccccc1[N+](=O)[O-]	active; positive
N#CSCSC#N	inactive; negative
CC(C)[C@@H]1CC[C@@H](C)C[C@H]1O	inactive; negative
CCC(C)O (configuration not stated)	inactive; negative
ClC(Cl)=C(c1ccc(Cl)cc1)c1ccc(Cl)cc1	inactive; negative
COP(=O)(OC)OC	active; positive
C1CN(CCOCCN2CCOCC2)CCO1	inactive; negative
[Co]	active; positive
c1ccsc1	inactive; negative
CSCCC=O	inactive; negative
C=C(C)C(=O)NCCCN(C)C	inactive; negative
C=C(C#N)C(=O)OC	active; positive
O=C/C=C/c1ccccc1	active; weakly positive
O=C1CCCO1	inactive; negative
COc1c2ccoc2cc2oc(=O)ccc12	active; positive
NS(=O)(=O)c1cc2c(cc1Cl)NC=NS2(=O)=O	inactive; negative
COS(C)(=O)=O	active; positive
C=C(C)C1CC=C(C)C(O)C1 (configuration not stated)	inactive; negative
O=C1c2c(Br)c(Br)c(Br)c(Br)c2C(=O)N1CCN1C(=O)c2c(Br)c(Br)c(Br)c(Br)c2C1=O	inactive; negative

Structure (SMILES)	outcome
CN	inactive; negative
NC(=O)c1ccccc1C(N)=O	inactive; negative
CCCCC(CC)COC(=O)C(C#N)=C(c1ccccc1)c1ccccc1 (configuration not stated)	inactive; negative
CC(=O)OCc1ccco1	active; positive
CCCC(=O)Cl	active; weakly positive
CC(=O)C(N=Nc1ccc(-c2ccc(N=NC(C(C)=O)C(=O)Nc3ccccc3)c(Cl)c2)cc1Cl)C(=O)Nc1ccccc1 (configuration not stated)	inactive; negative
CCC(C)(C)OC	inactive; negative
[Cl-].[Cl-].[Sn+2]	inactive; negative
COc1ccc(CN(CCN(C)C)c2ccccn2)cc1	inactive; negative
CCCCOC(=O)COc1cc(Cl)c(Cl)cc1Cl	inactive; negative
Brc1cc(Br)c(Oc2cc(Br)c(Br)cc2Br)cc1Br	inactive; negative
CNC[C@H](O)c1ccc(O)c(O)c1	active; weakly positive
NO	active; weakly positive
Cc1cccc(O)c1	inactive; negative
C=CC(=C)C	inactive; negative
COc1ccc2c(c1OC)C(=O)O[C@@H]2[C@H]1c2cc3c(cc2CCN1C)OCO3	inactive; negative
CCN(CC)CCO	inactive; negative
[O]=[Zr]	inactive; negative
CCCCCCOC(=O)c1ccccc1C(=O)OCCCCCC	inactive; negative
O=C1CSC(=S)N1	inactive; negative
CCOCCO	inactive; negative
CCCCCCCCCCCCCCCCCCN	inactive; negative
CCn1cc(C(=O)O)c(=O)c2ccc(C)nc21	active; weakly positive
CC(O)CO (configuration not stated)	inactive; negative
